In brackets after ≈: the same amount, converted by molar mass. Entries after “also recorded” stand apart in the source; their conditions may differ. Read-outs that look alike come from different tables or passages of the source.
Legend:
[1] = target: T1, human group IIA (hG-IIA) sPLA2 (Homo sapiens, UniProt P14555); test: In vitro antiphospholipase activity; assay type: biochemical
T1 sequence (P14555 21-144): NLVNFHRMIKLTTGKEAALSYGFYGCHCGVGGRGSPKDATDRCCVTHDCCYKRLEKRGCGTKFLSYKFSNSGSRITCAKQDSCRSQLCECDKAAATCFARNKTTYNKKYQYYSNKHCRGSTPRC

[2] = target: T2, human group V (hG-V) sPLA2 (Homo sapiens, UniProt P39877); test: In vitro antiphospholipase activity; assay type: biochemical
T2 sequence (P39877 21-138): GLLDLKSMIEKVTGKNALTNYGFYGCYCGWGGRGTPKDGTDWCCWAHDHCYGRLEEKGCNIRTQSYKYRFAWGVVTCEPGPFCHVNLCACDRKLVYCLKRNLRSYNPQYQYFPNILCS

[3] = target: T3, human group X (hG-X) sPLA2 (Homo sapiens, UniProt O15496); test: In vitro antiphospholipase activity; assay type: biochemical
T3 sequence (O15496 43-165): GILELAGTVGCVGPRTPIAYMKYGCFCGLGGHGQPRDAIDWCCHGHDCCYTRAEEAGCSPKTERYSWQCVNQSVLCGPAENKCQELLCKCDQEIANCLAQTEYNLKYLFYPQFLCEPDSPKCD

[4] = target: Naja mossambica mossambica sPLA2 (NmPLA2); test: In vitro antiphospholipase activity; assay type: biochemical; conditions: 20 min preincubation, lecithin substrate, pH 7.6
[5] = target: Apis mellifera bee venom (AmPLA2) (Apis mellifera, UniProt P00630); test: biochemical
[6] = target: cathepsin-B (Homo sapiens, UniProt P07858); test: In vitro antiprotease activity; assay type: biochemical
Method: (§1) The inhibitory effects of 21 3H-quinazolin-4-one derivatives on several available therapeutically important proteases such as cathepsin-B, collagenase, elastase, thrombin, and trypsin were investigated. […] The protease inhibitory activity was expressed as inhibition percentage, which was determined by comparison with a control experiment. The results were expressed as IC50 values that were determined from the standard curve. A protease inhibitor cocktail (Sigma) was used as the positive control.

[7] = target: collagenase; test: In vitro antiprotease activity; assay type: biochemical; conditions: 15 min preincubation
Method: as §1

[8] = target: elastase; test: In vitro antiprotease activity; assay type: biochemical; conditions: 15 min preincubation
Method: as §1

[9] = target: thrombin (Homo sapiens, UniProt P00734); test: In vitro antiprotease activity; assay type: biochemical
Method: as §1

[10] = target: T4, trypsin (Bos taurus, UniProt P00760); test: In vitro antiprotease activity; assay type: biochemical
T4 construct: gene PRSS1
T4 sequence (P00760 24-246): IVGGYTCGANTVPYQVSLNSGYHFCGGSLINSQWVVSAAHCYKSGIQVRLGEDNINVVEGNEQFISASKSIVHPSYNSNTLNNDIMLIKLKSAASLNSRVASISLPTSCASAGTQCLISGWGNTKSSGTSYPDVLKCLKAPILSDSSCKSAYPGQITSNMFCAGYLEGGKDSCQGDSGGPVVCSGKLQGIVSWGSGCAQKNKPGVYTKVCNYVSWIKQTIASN
Method: as §1

[11] = target: T5, α-glucosidase (Saccharomyces cerevisiae, UniProt P53341); test: In vitro inhibition of α-glucosidase activity; assay type: biochemical
T5 construct: purchased Sigma
Method: The colorimetric assay included 2 U of α-glucosidase, 5 mM of 4-NPGP, and 10 mM potassium phosphate buffer, pH 6.9. […] The reading assay was performed using a microplate reader at 405 nm. […] The results were expressed as IC50 determined from the curve.

[12] = target: xanthine oxidase (Homo sapiens, UniProt P47989); test: In vitro inhibition of xanthine oxidase; assay type: biochemical
Method: The xanthine oxidase inhibitory activities of the examined chemical compounds were determined by following the formation of uric acid from xanthine according to the reported method by Bondet and co-workers[46]. […] The results were expressed as IC50 determined from the curve.

[13] = tested on: HT-29 cells; test: MTT cell viability assay; assay type: cell-based, Human
Method: (§2) Human CRC cell lines, HT-29 and SW620 cells were grown in RPMI (Invitrogen) containing 10% heat-inactivated foetal bovine serum, 100 µg/ml streptomycin, 100 units/ml penicillin and 2 mmol/l L-glutamine.
(§3) Cell viability was determined using the 3-(4, 5-dimethylthiazolyl-2)–2, 5-diphenyltetrazolium bromide) MTT assay according to Mosmann[40]. 5-Fluorouracil (5-FU) was used as positive control. Briefly, after culturing cells in 96 well plates for 24 h, they were treated with different compounds (30 μg/ml) for 24 h. Freshly prepared MTT (5 mM) solutions were added to the cells and were further incubated for 2 h at 37 °C in 5% CO2. One hundred microliters of dimethyl sulphoxide (DMSO) was added in each well to dissolve the formazan crystal, formed in the reaction during incubation by careful pipetting. The absorbance of the product was measured at 540 nm using a microplate reader. The experiments were performed in triplicate for each condition. The graph illustrates the mean and standard deviation (SD) values of three independent experiments.

[14] = tested on: SW620 cells; test: MTT cell viability assay; assay type: cell-based, Human
Method: as §2, §3

[15] = tested on: HT-29 cells; test: Cytotoxicity assay using the xCELLigence system; assay type: cell-based, Human; conditions: HT-29, 20 and 40 µg/ml, 3 d, xCELLigence RTCA
Method: (§4) The optimal seeding concentration for proliferation of HT-29 was determined. HT-29 cells (5000 cell in 150 µl medium/well) and SW620 cells (12,000 cell in 150 µl medium/well) were seeded in 16 well plates (E-plate 16-ACEA Biosciences Inc., San Diego, CA) as described in the xCELLigence Real Time Cell Analyzer (RTCA) DP instrument manual provided by the manufacturer. After 24 h, 20 and 40 µg/ml of compound 15d were added and the experiments were allowed to run for another 3 d. Baseline cell indexes were calculated for at least two measurements from three replicate experiments.

[16] = tested on: SW620 cells; test: Cytotoxicity assay using the xCELLigence system; assay type: cell-based, Human; conditions: SW620, 20 and 40 µg/ml, 3 d, xCELLigence RTCA
Method: as §4

[17] = tested on: Bcl2; test: Western blotting of anti-apoptotic protein expression; assay type: cell-based, Human; conditions: SW620 cells, various concentrations, 24 h, immunoblot
Method: (§5) Whole cell lysates were prepared using radioimmunoprecipitation assay (RIPA) lysis buffer as described by Al-Khayal and co-workers[41]. Total protein concentration was determined using Bradford protein reagent (Bio-Rad, Hercules, CA). Soluble proteins were loaded on precast TGX gels and were analysed using immunoblotting with anti-Bcl2, anti-BclxL (dilution 1:1000; Santa Cruz Biotechnology, Dallas, TX), and anti-β-actin (1:10,000 Sigma, St. Louis, MO). Reactivity was detected using horseradish peroxidase-conjugated secondary antibodies and chemiluminescence by Clarity Western ECL substrate (Bio-Rad). Membrane was developed using C-Digit Blot Scanner (LI-COR, Hamburg, Germany).
(§6) SW620 cells were treated with various concentrations of 15d for 24 h.

[18] = tested on: BclxL; test: as above; assay type: cell-based, Human; conditions: SW620 cells, various concentrations, 24 h, immunoblot
Method: as §5, §6

[19] = tested on: HT-29 cells; test: MTT cell viability assay; assay type: cell-based; conditions: Homo sapiens, HT-29, read-out: IC50 (cell viability)
[20] = tested on: SW620 cells; test: MTT cell viability assay; assay type: cell-based; conditions: Homo sapiens, SW-620, read-out: IC50 (cell viability)

Sequence of xanthine oxidase (P47989 whole entry, species assumed): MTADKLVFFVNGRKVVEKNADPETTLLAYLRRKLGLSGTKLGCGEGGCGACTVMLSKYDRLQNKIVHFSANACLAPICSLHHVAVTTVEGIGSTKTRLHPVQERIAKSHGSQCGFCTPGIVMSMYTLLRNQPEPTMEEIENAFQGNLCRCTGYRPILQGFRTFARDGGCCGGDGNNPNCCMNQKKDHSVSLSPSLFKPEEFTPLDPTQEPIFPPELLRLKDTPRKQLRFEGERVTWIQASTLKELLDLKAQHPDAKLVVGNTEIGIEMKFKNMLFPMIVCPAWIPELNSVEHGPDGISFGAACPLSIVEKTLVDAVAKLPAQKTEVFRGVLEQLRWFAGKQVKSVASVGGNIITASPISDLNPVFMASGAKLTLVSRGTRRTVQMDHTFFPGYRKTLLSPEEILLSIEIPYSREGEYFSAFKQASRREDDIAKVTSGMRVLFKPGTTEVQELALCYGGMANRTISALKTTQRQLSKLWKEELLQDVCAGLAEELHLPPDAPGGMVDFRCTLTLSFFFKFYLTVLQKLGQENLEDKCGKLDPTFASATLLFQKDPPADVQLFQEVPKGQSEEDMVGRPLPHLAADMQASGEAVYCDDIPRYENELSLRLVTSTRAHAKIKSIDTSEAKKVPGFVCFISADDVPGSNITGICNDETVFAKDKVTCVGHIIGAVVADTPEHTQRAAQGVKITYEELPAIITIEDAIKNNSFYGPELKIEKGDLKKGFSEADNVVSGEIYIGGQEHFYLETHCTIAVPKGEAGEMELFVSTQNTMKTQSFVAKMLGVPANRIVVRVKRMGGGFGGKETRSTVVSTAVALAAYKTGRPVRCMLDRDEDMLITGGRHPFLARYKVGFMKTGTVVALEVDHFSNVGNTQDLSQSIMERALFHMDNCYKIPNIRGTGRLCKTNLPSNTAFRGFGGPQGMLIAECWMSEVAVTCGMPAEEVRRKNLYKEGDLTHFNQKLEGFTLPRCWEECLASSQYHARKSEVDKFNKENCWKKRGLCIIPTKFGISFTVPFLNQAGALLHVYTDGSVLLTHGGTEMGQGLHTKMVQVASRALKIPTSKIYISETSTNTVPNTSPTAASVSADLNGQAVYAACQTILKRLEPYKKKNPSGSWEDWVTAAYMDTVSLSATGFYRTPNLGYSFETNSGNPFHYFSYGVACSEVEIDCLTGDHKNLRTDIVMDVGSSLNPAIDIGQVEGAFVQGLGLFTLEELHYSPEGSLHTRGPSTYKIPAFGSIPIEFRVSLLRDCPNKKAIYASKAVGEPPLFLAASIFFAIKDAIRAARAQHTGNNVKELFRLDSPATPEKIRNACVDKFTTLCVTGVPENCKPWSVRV
Sequence of Apis mellifera bee venom (AmPLA2) (P00630 34-167 limits assumed): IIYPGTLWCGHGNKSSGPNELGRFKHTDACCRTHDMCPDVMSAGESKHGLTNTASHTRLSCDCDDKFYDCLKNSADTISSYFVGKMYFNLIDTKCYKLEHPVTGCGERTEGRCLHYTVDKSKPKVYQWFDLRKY
T5 sequence (P53341 whole entry): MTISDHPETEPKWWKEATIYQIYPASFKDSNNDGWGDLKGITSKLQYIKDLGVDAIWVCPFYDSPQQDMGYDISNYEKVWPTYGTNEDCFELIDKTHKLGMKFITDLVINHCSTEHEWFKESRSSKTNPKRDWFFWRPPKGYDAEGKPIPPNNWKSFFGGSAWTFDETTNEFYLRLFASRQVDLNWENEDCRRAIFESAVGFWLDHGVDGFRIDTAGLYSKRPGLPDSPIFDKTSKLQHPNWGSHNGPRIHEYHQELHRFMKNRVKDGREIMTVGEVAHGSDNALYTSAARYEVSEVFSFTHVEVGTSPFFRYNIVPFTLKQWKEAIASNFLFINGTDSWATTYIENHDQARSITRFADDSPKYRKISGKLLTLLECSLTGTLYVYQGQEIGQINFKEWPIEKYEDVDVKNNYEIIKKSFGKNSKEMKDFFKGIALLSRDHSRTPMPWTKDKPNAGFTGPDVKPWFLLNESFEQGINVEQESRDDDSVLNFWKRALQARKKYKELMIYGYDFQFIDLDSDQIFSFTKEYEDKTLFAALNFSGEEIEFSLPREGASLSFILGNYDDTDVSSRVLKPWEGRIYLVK

Question: For `COc1cc(-n2c(C)nc3ccccc3c2=O)cc(OC)c1OC` [Compound 5a, 2 -Methyl-3-(3,4,5-trimethoxy-phenyl)-3H-quinazolin-4-one], which IC50 [1] is on record?
Answer: 21.4 µM

Question: And the IC50 [2]?
Answer: 29.4 µM

Question: And the IC50 [3]?
Answer: 23.4 µM

Question: What about the “mean IC50 against NmPLA2” value [4] of the same compound?
Answer: 6.00 ± 0.71 µg/mL

Question: And the IC50 [5]?
Answer: 16.9 µM

Question: And the IC50 [6]?
Answer: 25.3 µM

Question: What about the “mean IC50 against Collagenase” value [7] of the same compound?
Answer: 12.25 ± 1.77 µg/mL

Question: And the “mean IC50 against Elastase” value [8]?
Answer: 23.5 ± 0.71 µg/mL

Question: What about the IC50 [9] of the same compound?
Answer: 67.4 µM

Question: What about the IC50 [10] of the same compound?
Answer: 88.9 µM

Question: What about the IC50 [11] of the same compound?
Answer: 64.3 µM

Question: And the IC50 [12]?
Answer: 22.2 µM

Question: And the melting point?
Answer: 88 to 90 °C

Question: Which “inhibition of cell viability (in words)” value ([13]; HT-29, 30 μg/ml, MTT) does the source give for `Cc1ccc2nc(SCC(=O)Nc3c(C)cccc3C)n(-c3ccccc3)c(=O)c2c1` [Compound 15d, N-(2,6-Dimethyl-phenyl)-2-(6-methyl-4-oxo-3-phenyl-3,4-dihydro-quinazolin-2-ylsulfanyl) -acetamide] here?
Answer: potently capable of inhibiting cell viability

Question: And the viability at 30 µg/mL ([13]; Homo sapiens, HT-29, 24 h, read-out: cell viability)?
Answer: 38%

Question: What about the viability at 30 µg/mL ([14]; Homo sapiens, SW-620, 24 h, read-out: cell viability) of the same compound?
Answer: 36.7%

Question: What about the “inhibition of cell viability (in words)” value ([14]; SW620, 30 μg/ml, MTT) of the same compound?
Answer: potently capable of inhibiting cell viability

Question: And the “cell proliferation, real time (in words)” value [15]?
Answer: inhibit the cell proliferation

Question: And the “cell proliferation, real time (in words)” value [16]?
Answer: inhibit the cell proliferation

Question: And the “expression of Bcl2” value [17]?
Answer: down regulating; also recorded: inhibited

Question: What about the “expression of BclxL” value [18] of the same compound?
Answer: down regulating; also recorded: inhibited

Question: And the IC50 [1]?
Answer: 16.6 µM

Question: What about the IC50 ([2]; 20 min preincubation, lecithin substrate, pH 7.6, read-out: mean IC50 against hG-V (converted)) of the same compound?
Answer: 24.4 µM

Question: And the IC50 ([3]; 20 min preincubation, lecithin substrate, pH 7.6, read-out: mean IC50 against hG-X (converted))?
Answer: 54.7 µM

Question: What about the “mean IC50 against NmPLA2” value [4] of the same compound?
Answer: 8.50 ± 2.12 µg/mL

Question: And the IC50 [5]?
Answer: 14 µM

Question: What about the IC50 ([6]; 15 min preincubation, read-out: mean IC50 against Cathepsin-B (converted)) of the same compound?
Answer: 9.31 µM

Question: What about the “mean IC50 against Collagenase” value [7] of the same compound?
Answer: 10.50 ± 0.71 µg/mL

Question: And the “mean IC50 against Elastase” value [8]?
Answer: 15.50 ± 2.12 µg/mL

Question: And the IC50 ([9]; 15 min preincubation, read-out: mean IC50 against Thrombin (converted))?
Answer: 39.6 µM

Question: What about the IC50 ([10]; 15 min preincubation, read-out: mean IC50 against Trypsin (converted)) of the same compound?
Answer: 32.6 µM

Question: And the IC50 [12]?
Answer: 165 µM

Question: And the melting point?
Answer: 229 to 230 °C

Question: And the IC50 [19]?
Answer: ~20 µg/mL (≈ 46.6 µM)

Question: What about the IC50 [20] of the same compound?
Answer: ~20 µg/mL (≈ 46.6 µM)

Reference: publication PMC6407576, “Synthesis and evaluation of anticancer, antiphospholipases, antiproteases, and antimetabolic syndrome activities of some 3H-quinazolin-4-one derivatives” (Journal of Enzyme Inhibition and Medicinal Chemistry, 2019)
